Laboratory results reported in patent US12492181B2, “Gem-disubstituted piperidine melanocortin subtype-2 receptor (MC2R) antagonists and uses thereof” (Crinetics Pharmaceuticals, Inc., priority 2019, dated 2025).

Each compound was assayed against T1, hMC2 receptor (crude hMC2R membranes from CRE-bla-CHO-K1 cells stably expressing hMC2 receptor and hMRAP accessory protein) (Homo sapiens, UniProt Q01718) (assay: hMC2 membrane binding assay ([125I]ACTH (1-39) Tyr23, SPA)). Conditions: displacement of 0.2 nM [125I]ACTH (1-39) Tyr23 from hMC2R membranes, 1.5 hours at room temperature; read-out: MC2R binding potency.
T1 construct: crude membrane fractions
Method in brief: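 Ki values come from non-linear regression of SPA scintillation counts, with compounds displacing [125I]ACTH(1-39) Tyr23. Membranes come from CRE-bla-CHO-K1 cells stably expressing hMC2 receptor together with hMRAP. They are preincubated with WGA-coated PVT SPA beads in 50 mM HEPES pH 7.4 with 0.20% BSA, Mg2+, Ca2+ and protease inhibitors.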

T1 sequence (Q01718 whole entry): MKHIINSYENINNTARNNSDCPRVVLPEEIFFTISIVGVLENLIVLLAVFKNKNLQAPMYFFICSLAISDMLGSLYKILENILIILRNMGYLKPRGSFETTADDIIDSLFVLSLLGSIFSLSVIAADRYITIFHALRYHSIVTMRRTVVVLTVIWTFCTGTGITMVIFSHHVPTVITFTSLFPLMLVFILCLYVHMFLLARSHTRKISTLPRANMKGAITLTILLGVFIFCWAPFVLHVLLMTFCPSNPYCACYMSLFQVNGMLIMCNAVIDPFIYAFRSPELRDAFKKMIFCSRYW
T1 sequence (Q8TCY5 whole entry partner): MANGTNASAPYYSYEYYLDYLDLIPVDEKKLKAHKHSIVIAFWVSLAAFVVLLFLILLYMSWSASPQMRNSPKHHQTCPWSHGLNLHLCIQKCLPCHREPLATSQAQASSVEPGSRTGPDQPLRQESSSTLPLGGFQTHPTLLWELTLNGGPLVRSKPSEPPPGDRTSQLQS

| Structure (SMILES) | Ki [nM] |
| --- | --- |
| COc1ccccc1-c1ccc(C2(C(=O)NC3CN(C)C3)CCN(c3ccc(C(F)(F)F)cc3C#N)CC2)cn1 [Compound 1-94, 1-[2-cyano-4-(trifluoromethyl)phenyl]-4-[6-(2-methoxyphenyl)pyridin-3-yl]-N-(1-methylazetidin-3-yl)piperidine-4-carboxamide] | < 10 |
| CCOc1ncccc1-c1ccc(C2(C(=O)N[C@@H]3CCN(C)C3)CCN(c3ccc(C(F)(F)F)nc3C#N)CC2)cn1 [Compound 1-24, 1-[2-cyano-6-(trifluoromethyl)pyridin-3-yl]-4-{2′-ethoxy-[2,3′-bipyridin]-5-yl}-N-[(3R)-1-methylpyrrolidin-3-yl]piperidine-4-carboxamide] | < 10 |
| CCOc1ncccc1-c1ccc(C2(C(=O)N[C@H]3CCN(C)C3)CCN(c3ccc(Cl)cc3C#N)CC2)cn1 [Compound 1-34, 1-(4-chloro-2-cyanophenyl)-4-{2′-ethoxy-[2,3′-bipyridin]-5-yl}-N-[(3S)-1-methylpyrrolidin-3-yl]piperidine-4-carboxamide] | < 10 |
| CCOc1ncccc1-c1ccc(C2(C(=O)N[C@H]3CCN(C)C3)CCN(c3ccc(C(F)F)cc3C#N)CC2)cn1 [Compound 1-37, 1-[2-cyano-4-(difluoromethyl)phenyl]-4-{2′-ethoxy-[2,3′-bipyridin]-5-yl}-N-[(3S)-1-methylpyrrolidin-3-yl]piperidine-4-carboxamide] | < 10 |
| CCOc1ncccc1-c1ccc(C2(C(=O)NCCN)CCN(c3ccc(C(F)(F)F)cc3C#N)CC2)cc1 [Compound 1-3, N-(2-aminoethyl)-1-[2-cyano-4-(trifluoromethyl)phenyl]-4-[4-(2-ethoxypyridin-3-yl)phenyl]piperidine-4-carboxamide] | 10 to 100 |
| COCc1ccccc1-c1ccc(C2(C(=O)N[C@@H]3CCN(C)C3)CCN(c3ccc(C(F)(F)F)cc3C#N)CC2)cn1 [Compound 1-79, 1-[2-cyano-4-(trifluoromethyl)phenyl]-4-{6-[2-(methoxymethyl)phenyl]pyridin-3-yl}-N-[(3R)-1-methylpyrrolidin-3-yl]piperidine-4-carboxamide] | < 10 |
| CCOc1ncccc1-c1ccc(C2(C(=O)NC[C@@H](N)CO)CCN(c3ccc(C(F)(F)F)cc3C#N)CC2)cn1 [Compound 1-17, N-[(2R)-2-amino-3-hydroxypropyl]-1-[2-cyano-4-(trifluoromethyl)phenyl]-4-{2′-ethoxy-[2,3′-bipyridin]-5-yl}piperidine-4-carboxamide] | < 10 |
| CCOc1ncccc1-c1ncc(C2(C(=O)N[C@@H]3CCN(C)C3)CCN(c3ccc(C(F)(F)F)cc3C#N)CC2)cc1F [Compound 1-108, 1-[2-cyano-4-(trifluoromethyl)phenyl]-4-{2′-ethoxy-3-fluoro-[2,3′-bipyridin]-5-yl}-N-[(3R)-1-methylpyrrolidin-3-yl]piperidine-4-carboxamide] | < 10 |

Other lines, results leading:

| Ki [nM] | Structure (SMILES) |
| --- | --- |
| < 10 | CN(C)CC1(NC(=O)C2(c3ccc(-c4cccn4C)nc3)CCN(c3ccc(C(F)(F)F)cc3C#N)CC2)COC1 [Compound 1-262, 1-[2-cyano-4-(trifluoromethyl)phenyl]-N-{3-[(dimethylamino)methyl]oxetan-3-yl}-4-[6-(1-methyl-1H-pyrrol-2-yl)pyridin-3-yl]piperidine-4-carboxamide] |
| 10 to 100 | CCOc1ncccc1-c1ccc(C2(C(=O)N[C@@H]3CCN(C)C3)CCN(c3ccc(C(F)(F)F)cc3OC)CC2)cc1 [Compound 1-159, 4-[4-(2-ethoxypyridin-3-yl)phenyl]-1-[2-methoxy-4-(trifluoromethyl)phenyl]-N-[(3R)-1-methylpyrrolidin-3-yl]piperidine-4-carboxamide] |
| < 10 | CN1CC[C@H](NC(=O)C2(c3ccc(-c4cccn4C)nn3)CCN(c3ccc(C(F)(F)F)cc3Cl)CC2)C1 [Compound 1-169, 1-[2-chloro-4-(trifluoromethyl)phenyl]-4-[6-(1-methyl-1H-pyrrol-2-yl)pyridazin-3-yl]-N-[(3S)-1-methylpyrrolidin-3-yl]piperidine-4-carboxamide] |
| < 10 | COc1sccc1-c1ccc(C2(C(=O)N[C@H]3CCN(C)C3)CCN(c3ccc(C(F)(F)F)cc3Cl)CC2)cn1 [Compound 1-167, 1-[2-chloro-4-(trifluoromethyl)phenyl]-4-[6-(2-methoxythiophen-3-yl)pyridin-3-yl]-N-[(3S)-1-methylpyrrolidin-3-yl]piperidine-4-carboxamide] |
| < 10 | CCOc1ccccc1-c1ccc(C2(C(=O)NCCN(C)C)CCN(c3ccc(C(F)(F)F)cc3Cl)CC2)cn1 [Compound 1-228, 1-[2-chloro-4-(trifluoromethyl)phenyl]-N-[2-(dimethylamino)ethyl]-4-[6-(2-ethoxyphenyl)pyridin-3-yl]piperidine-4-carboxamide] |
| < 10 | CCOc1ncccc1-c1ccc(C2(C(=O)NCCN(C)C)CCN(c3ccc(C(F)(F)F)cc3F)CC2)nn1 [Compound 1-335, N-[2-(dimethylamino)ethyl]-4-[6-(2-ethoxypyridin-3-yl)pyridazin-3-yl]-1-[2-fluoro-4-(trifluoromethyl)phenyl]piperidine-4-carboxamide] |
| < 10 | CNCCNC(=O)C1(c2cnc(-c3ccccc3OC)c(F)c2)CCN(c2ccc(C(F)(F)F)cc2C#N)CC1 [Compound 1-196, 1-[2-cyano-4-(trifluoromethyl)phenyl]-4-[5-fluoro-6-(2-methoxyphenyl)pyridin-3-yl]-N-[2-(methylamino)ethyl]piperidine-4-carboxamide] |
| < 10 | COc1ccccc1-c1ncc(C2(C(=O)N[C@@H]3CCN(C)C3)CCN(c3ccc(C(F)(F)F)cc3C#N)CC2)cc1F [Compound 1-126, 1-[2-cyano-4-(trifluoromethyl)phenyl]-4-[5-fluoro-6-(2-methoxyphenyl)pyridin-3-yl]-N-[(3R)-1-methylpyrrolidin-3-yl]piperidine-4-carboxamide] |
| < 10 | CCOc1ccccc1-c1ncc(C2(C(=O)N[C@H]3CCN(C)C3)CCN(c3ccc(C(F)(F)F)cc3Cl)CC2)cc1F [Compound 1-202, 1-[2-chloro-4-(trifluoromethyl)phenyl]-4-[6-(2-ethoxyphenyl)-5-fluoropyridin-3-yl]-N-[(3S)-1-methylpyrrolidin-3-yl]piperidine-4-carboxamide] |
| < 10 | CN1CC[C@H](NC(=O)C2(c3ccc(-c4ccc[nH]4)nc3)CCN(c3ccc(C(F)(F)F)cc3C#N)CC2)C1 [Compound 1-143, 1-[2-cyano-4-(trifluoromethyl)phenyl]-N-[(3S)-1-methylpyrrolidin-3-yl]-4-[6-(1H-pyrrol-2-yl)pyridin-3-yl]piperidine-4-carboxamide] |
| < 10 | COc1ccc(C)cc1-c1ccc(C2(C(=O)N[C@@H]3CCN(C)C3)CCN(c3ccc(C(F)(F)F)cc3C#N)CC2)cn1 [Compound 1-130, 1-[2-cyano-4-(trifluoromethyl)phenyl]-4-[6-(2-methoxy-5-methylphenyl)pyridin-3-yl]-N-[(3R)-1-methylpyrrolidin-3-yl]piperidine-4-carboxamide] |
| < 10 | CCOc1ncccc1-c1ccc(C2(NC(=O)CCNC)CCN(c3ccc(C(F)(F)F)cc3C#N)CC2)cn1 [Compound 2-5, N-{1-[2-cyano-4-(trifluoromethyl)phenyl]-4-{2′-ethoxy-[2,3′-bipyridin]-5-yl}piperidin-4-yl}-3-(methylamino)propanamide] |
